These results are taken from PMC5668678 (Biochemistry and Biophysics Reports, 2015).

Test [1] relates to MmKv1 channel. Conditions: versus Kv1.3; ref [24]; cited from earlier work.
Test [2] concerns KCNQ1-Q321V channel. The test can be described thus: Patch clamp of KCNQ1 single residue mutant at Q321, sensitivity to ChTX. To be noted: site-directed mutant, HEK293 cells, Fig. 3. The class given is cell-based, human.
In test [3] the test system is KCNQ1-M3 chimera channel. The test can be described thus: Patch clamp of KCNQ1-M3 chimera currents. Format: cell-based, human. Conditions: 1 μM ChTX, HEK293 cells, turret region mutant.
Test [4] deals with KCNQ1-M2 chimera channel. Briefly: Patch clamp of KCNQ1-M2 chimera currents. To be noted: 1 μM ChTX, HEK293 cells, filter region mutant. Format: cell-based, human.
Test [5] has as its system KCNQ1-M1 channel chimera. Briefly: Patch clamp of KCNQ1-M1 chimera currents. Format: cell-based, human. To be noted: 1 μM ChTX, HEK293 cells, turret and filter region mutant.
The test system of test [6] is MmKv2 channel. Conditions: ref [24]; cited from earlier work.
Test [7] has as its system KCNQ1-K318M channel. Briefly: Patch clamp of KCNQ1 single residue mutant at Lys318, sensitivity to ChTX. The class given is cell-based, human. Conditions: site-directed mutant, HEK293 cells, Fig. 3.

As to charybdotoxin [ChTX], the “sensitivity of MmKv1 toward scorpion venom and ChTX, compared with Kv1.3” value in test [1] is on record as “weaker sensitivity”. Besides, the “effect of residue Q321 on the binding of ChTX” value in test [2] is reported as “did not affect the binding of ChTX”. The “inhibition of KCNQ1-M3 channel currents” value in test [3] was “not effectively inhibited”. In test [4], the “inhibition of KCNQ1-M2 channel currents” value is reported as “effectively inhibited”. Further, the “inhibition of KCNQ1-M1 channel currents” value in test [5] was “effectively inhibited”. Further, in test [6], the “sensitivity of MmKv2 toward scorpion venom and ChTX” value is “completely insensitive”. For the same substance, the “effect of residue Lys318 on the binding of ChTX” value in test [7] is “found to affect the binding of ChTX”.
